In patent publication US7491825B2, “Basic non-peptide bradykinin antagonists and pharmaceutical compositions therefrom” (Menarini Ricerche S.p.A., priority 2002, dated 2009):
Counter-ions that a name gives are not always drawn.

Molecular target: T1, human B2 receptor (Homo sapiens, UniProt P30411)
T1 construct: human B2 receptor expressed in human fibroblasts W138; endogenous in cells; host or cells: human fibroblasts W138 (WI-38)
T1 sequence (P30411 1-391): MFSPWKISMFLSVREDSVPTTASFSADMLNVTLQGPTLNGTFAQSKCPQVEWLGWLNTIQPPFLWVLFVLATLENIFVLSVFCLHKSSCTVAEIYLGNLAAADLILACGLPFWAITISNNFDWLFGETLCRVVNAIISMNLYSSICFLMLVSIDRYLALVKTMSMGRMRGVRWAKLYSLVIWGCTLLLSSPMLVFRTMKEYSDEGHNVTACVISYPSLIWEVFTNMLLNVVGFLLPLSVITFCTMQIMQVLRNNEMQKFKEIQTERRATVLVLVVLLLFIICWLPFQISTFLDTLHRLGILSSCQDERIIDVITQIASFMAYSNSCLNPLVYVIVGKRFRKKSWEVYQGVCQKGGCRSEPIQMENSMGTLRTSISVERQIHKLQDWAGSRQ
Test: binding to the human B2 receptor expressed in human fibroblasts W138
Conditions: not given
Description: In the following the binding values are reported expressed as pKi.

Compound | Ki [nM]
CCN=C(NCC)NCCC[C@H](N)C(=O)N1CCN(C(=O)C(C)(C)NS(=O)(=O)c2ccc(Cl)c(COc3cccc4ccc(C)nc34)c2Cl)CC1 [Example 41] | 0.501
Cc1cc(C)c2cccc(OCc3c(Cl)ccc(S(=O)(=O)NC4(C(=O)N5CCN(C(=N)NCCCCCCN)CC5)CCCC4)c3Cl)c2n1 [Example 95, N-(6-Amino-hexyl)-4-{1-[2,4-dichloro-3-(2,4-dimethyl-quinolin-8-yloxymethyl)-benzenesulfonylamino]-cyclopentanecarbonyl}-piperazine-1-carboxamidine bis trifluoroacetate] | 0.501
Cc1ccc2cccc(OCc3c(Cl)ccc(S(=O)(=O)NC(C)(C)C(=O)N4CCN(C(=O)CC5CCNCC5)CC4)c3Cl)c2n1 [Example 25, N-{2-[4-2-(Piperidin-4-yl-acetyl)-piperazin-1-yl]-1,1-dimethyl-2-oxo-ethyl}-2,4-dichloro-3-(2-methyl-8-quinolinoxymethyl)-benzenesulfonamide bis trifluoroacetate] | 0.537
CCN=C(NCC)NCCCC[C@H](N)C(=O)N1CCN(C(=O)C2(NS(=O)(=O)c3ccc(Cl)c(COc4cccc5c(C)cc(C)nc45)c3Cl)CCCC2)CC1 [Example 43, (2S)—N-(1-{4-[2-Amino-6-(N′,N″-diethyl-guanidino)-hexanoyl]-piperazine-1-carbonyl}-cyclopentyl)-2,4-dichloro-3-(2,4-dimethyl-quinolin-8-yloxymethyl)-benzenesulfonamide] | 0.398
Cc1cc(C)c2cccc(OCc3c(Cl)ccc(S(=O)(=O)NC4(C(=O)N5CCC(C[N+](C)(C)CCCCC[N+](C)(C)C)CC5)CCCC4)c3Cl)c2n1 [Example 86, {5-[(1-{1-[2,4-Dichloro-3-(2,4-dimethyl-quinolin-8-yloxymethyl)-benzensulfonylamino]-cyclopentanecarbonyl}-piperidin-4-ylmethyl)-dimethyl-ammonium]-pentyl}-trimethyl-ammonium tris trifluoroacetate] | 0.398
CC[C@@](C)(NS(=O)(=O)c1ccc(Cl)c(COc2cccc3c(C)cc(C)nc23)c1Cl)C(=O)N1CCN(C(=O)C[C@@H](N)CCCNC(=N)N)CC1 [Example 70, (R)—N-[4-(3-(S)-Amino-6-guanidino-hexanoyl)-piperazine-1-carbonyl]-1-methyl-propyl]-2,4-dichloro-3-(2,4-dimethyl-quinolin-8-yloxymethyl)-benzenesulfonamide tris trifluoroacetate] | 0.631
Cc1cc(C)c2cccc(OCc3c(Cl)ccc(S(=O)(=O)NC(C)(C)C(=O)N4CCN(C(=O)[C@@H](N)CCCNC(=N)N)CC4)c3Cl)c2n1 [Example 48, N-[2-[4-(2-(S)-Amino-5-guanidino-pentanoyl)-piperazin-1-yl]-1,1-dimethyl-2-oxo-ethyl]-2,4-dichloro-3-(2,4-dimethyl-quinolin-8-yloxymethyl)-benzenesulfonamide] | 0.631

Same assay, conditions: human B2 receptor expressed in human fibroblasts W138

Compound | pKi
Cc1cc(C)c2cccc(OCc3c(Cl)ccc(S(=O)(=O)NC4(C(=O)N5CCN(C(=O)CCC[N+](C)(C)C)CC5)CCCC4)c3Cl)c2n1 [Example 83, N-{1-[4-(4-Trimethylammonium-butanoyl)-piperazine-1-carbonyl]-cyclopentyl}-2,4-dichloro-3-(2,4-dimethyl-quinolin-8-yloxymethyl)-benzenesulfonamide bis trifluoroacetate] | 9.4
N-[1-[4-(2-(S)-Dimethylamino-6-dimethylamino-hexanoyl)-piperazin-1-yl]-cyclopentyl]-2,4-dichloro-3-(2,4-dimethyl-quinolin-8-yloxymethyl)-benzenesulfonamide tris trifluoroacetate [Example 85] | 9.3
Cc1cc(C)c2cccc(OCc3c(Cl)ccc(S(=O)(=O)NC4(C(=O)N5CCN(C(=O)[C@@H](N)CCCC[N+](C)(C)C)CC5)CCCC4)c3Cl)c2n1 [Example 79, N-{1-[4-(2-(S)-Amino-6-trimethylammonium-hexanoyl)-piperazine-1-carbonyl]-cyclopentyl}-2,4-dichloro-3-(2,4-dimethyl-quinolin-8-yloxymethyl)-benzenesulfonamide tris trifluoroacetate] | 9.2
Cc1cc(C)c2cccc(OCc3c(Cl)ccc(S(=O)(=O)NC4(C(=O)N5CCN(C(=O)[C@H](CCCCN)[N+](C)(C)C)CC5)CCCC4)c3Cl)c2n1 [Example 90, N-[1-[4-(2-(S)-Trimethylammonium-6-amino-hexanoyl)-piperazin-1-yl]-cyclopentyl]-2,4-dichloro-3-(2,4-dimethyl-quinolin-8-yloxymethyl)-benzenesulfonamide tris trifluoroacetate] | 9.9
Cc1cc(C)c2cccc(OCc3c(Cl)ccc(S(=O)(=O)NC4(C(=O)N5CCN(C(=O)C[C@@H](N)CCC[N+](C)(C)C)CC5)CCCC4)c3Cl)c2n1.Cc1cc(C)c2cccc(OCc3c(Cl)ccc(S(=O)(=O)NC4(C(=O)N5CCN(C(=O)C[C@@H](N)CCC[N+](C)(C)C)CC5)CCCC4)c3Cl)c2n1.O=C([O-])C(F)(F)F.O=C([O-])C(F)(F)F [Example 107, [4-(S)-Amino-6-(4-{1-[2,4-dichloro-3-(2,4-dimethyl-quinolin-8-yloxymethyl)-benzenesulfonylamino]-cyclopentanecarbonyl}-piperazin-1-yl)-6-oxohexyl]-trimethylammonium bis trifluoroacetate] | 9.7
2,4-Dichloro-3-(2-methyl-quinolin-8-yloxymethyl)-benzenesulfinic acid {2-[4-(2-guanidino-ethyl)-piperazin-1-yl]-1,1-dimethyl-2-oxo-ethyl}-amide [Example 40] | 9.7
Cc1cc(C)c2cccc(OCc3c(Cl)ccc(S(=O)(=O)N[C@H](C)C(C)C(=O)N4CCN(C(=O)CN5CCN(CCNC(=N)N)CC5)CC4)c3Cl)c2n1.O=C(O)C(F)(F)F.O=C(O)C(F)(F)F.O=C(O)C(F)(F)F.O=C(O)C(F)(F)F (stereo partly shown) [Example 71] | 9.4
Cc1cc(C)c2cccc(OCc3c(Cl)ccc(S(=O)(=O)NC4(C(=O)N5CCN(C(=O)C[C@H](CCCNC(=NC6CCCCC6)NC6CCCCC6)NC(=NC6CCCCC6)NC6CCCCC6)CC5)CCCC4)c3Cl)c2n1.O=C(O)C(F)(F)F.O=C(O)C(F)(F)F.O=C(O)C(F)(F)F [Example 80, N-(1-{4-[3-(S),6-Bis-(N′,N″-dicyclohexyl-guanidino)-hexaoyl]-piperazine-1-carbonyl}-cyclopentyl)-2,4-dichloro-3-(2,4-dimethyl-quinolin-8-yloxymethyl)-benzensulfonamide tris trifluoroacetate] | 9.2

Same assay, conditions: human B2 receptor expressed in human fibroblasts W138; read-out: pKi (converted)

Compound | Ki [nM]
Cc1ccc2cccc(OCc3c(Cl)ccc(S(=O)(=O)NC(C)(C)C(=O)N4CCN(C(=O)CNC5CCNCC5)CC4)c3Cl)c2n1 [Example 26, N-{2-[4-[N-(4-Piperidyl)glycyl]-piperazin-1-yl]-1,1-dimethyl-2-oxo-ethyl}-2,4-dichloro-3-(2-methyl-8-quinolinoxymethyl)-benzenesulfonamide tris trifluoroacetate] | 0.501
Cc1ccc2cccc(OCc3c(Cl)ccc(S(=O)(=O)NC(C)(C)C(=O)N4CCN(C(=O)C[C@@H](N)CCCN(C)C)CC4)c3Cl)c2n1 [Example 29, N-{2-[4-(3-(S)-Amino-6-dimethylamino-hexanoyl)-piperazin-1-yl]-1,1-dimethyl-2-oxo-ethyl}-2,4-dichloro-3-(2-methyl-8-quinolinoxymethyl)-benzenesulfonamide tris trifluoroacetate] | 0.631
Cc1cc(C)c2cccc(OCc3c(Cl)ccc(S(=O)(=O)NC(C)(C)C(=O)N4CCN(C(=O)C[C@@H](N)CCCN(C)C)CC4)c3Cl)c2n1 [Example 46, N-[2-[4-(3-(S)-Amino-6-dimethylamino-hexanoyl)-piperazin-1-yl]-1,1-dimethyl-2-oxo-ethyl]-2,4-dichloro-3-(2,4-dimethyl-quinolin-8-yloxymethyl)-benzenesulfonamide] | 0.501
Cc1ccc2cccc(OCc3c(Cl)ccc(S(=O)(=O)NC(C)(C)C(=O)N4CCN(C(=O)C[C@@H](N)CCCCN(C)C)CC4)c3Cl)c2n1 [Example 30, N-{2-[4-(3-(S)-Amino-7-dimethylamino-heptanoyl)-piperazin-1-yl]-1,1-dimethyl-2-oxo-ethyl}-2,4-dichloro-3-(2-methyl-8-quinolinoxymethyl)-benzenesulfonamide tris trifluoroacetate] | 0.794
Cc1cc(C)c2cccc(OCc3c(Cl)ccc(S(=O)(=O)NC4(C(=O)N5CCN(C(=O)[C@@H](N)CC6CCNCC6)CC5)CCCC4)c3Cl)c2n1 [Example 81, N-{1-[4-(2-(S)Amino-3-piperidin-4-yl-propionyl)-piperazine-1-carbonyl]-cyclopentyl}-2,4-dichloro-3-(2,4-dimethyl-quinolin-8-yloxymethyl)-benzenesulfonamide tris trifluoroacetate] | 0.631
Cc1cc(C)c2cccc(OCc3c(Cl)ccc(S(=O)(=O)NC4(C(=O)N5CCN(C(=O)C[C@@H](O)C[N+](C)(C)C)CC5)CCCC4)c3Cl)c2n1 [Example 84, N-{1-[4-(3(R)-Hydroxy-4-trimethylammonium-butanoyl)-piperazine-1-carbonyl]-cyclopentyl}-2,4-dichloro-3-(2,4-dimethyl-quinolin-8-yloxymethyl)-benzenesulfonamide bis trifluoroacetate] | 0.631
Cc1cc(C)c2cccc(OCc3c(Cl)ccc(S(=O)(=O)NC4(C(=O)N5CCN(CCN6CCNCC6)CC5)CCCC4)c3Cl)c2n1 [Example 100, 2,4-Dichloro-3-(2,4-dimethyl-quinolin-8-yloxymethyl)-N-{1-[4-(2-piperazin-1-yl-ethyl)-piperazine-1-carbonyl]-cyclopentyl}-benzenesulfonamide tetra trifluoroacetate] | 0.398
